The target of test [1] is Receptor tyrosine-protein kinase erbB-2 (Homo sapiens) (UniProt P04626). Briefly: Ratio of HER-2 inhibition by diastereomers.
The target in test [2] is Receptor tyrosine-protein kinase erbB-4 (Homo sapiens) (UniProt Q15303). Briefly: Ratio of HER-4 inhibition by diastereomers (inactive).
Test [3] has the same target. The experiment in a line: Ratio of HER-4 inhibition by diastereomers.

Calls of active or inactive are those of the source. The calls are words filed in the database; no cut-off is given here.

Receptor tyrosine-protein kinase erbB-4 (Homo sapiens), sequence (Q15303 whole entry): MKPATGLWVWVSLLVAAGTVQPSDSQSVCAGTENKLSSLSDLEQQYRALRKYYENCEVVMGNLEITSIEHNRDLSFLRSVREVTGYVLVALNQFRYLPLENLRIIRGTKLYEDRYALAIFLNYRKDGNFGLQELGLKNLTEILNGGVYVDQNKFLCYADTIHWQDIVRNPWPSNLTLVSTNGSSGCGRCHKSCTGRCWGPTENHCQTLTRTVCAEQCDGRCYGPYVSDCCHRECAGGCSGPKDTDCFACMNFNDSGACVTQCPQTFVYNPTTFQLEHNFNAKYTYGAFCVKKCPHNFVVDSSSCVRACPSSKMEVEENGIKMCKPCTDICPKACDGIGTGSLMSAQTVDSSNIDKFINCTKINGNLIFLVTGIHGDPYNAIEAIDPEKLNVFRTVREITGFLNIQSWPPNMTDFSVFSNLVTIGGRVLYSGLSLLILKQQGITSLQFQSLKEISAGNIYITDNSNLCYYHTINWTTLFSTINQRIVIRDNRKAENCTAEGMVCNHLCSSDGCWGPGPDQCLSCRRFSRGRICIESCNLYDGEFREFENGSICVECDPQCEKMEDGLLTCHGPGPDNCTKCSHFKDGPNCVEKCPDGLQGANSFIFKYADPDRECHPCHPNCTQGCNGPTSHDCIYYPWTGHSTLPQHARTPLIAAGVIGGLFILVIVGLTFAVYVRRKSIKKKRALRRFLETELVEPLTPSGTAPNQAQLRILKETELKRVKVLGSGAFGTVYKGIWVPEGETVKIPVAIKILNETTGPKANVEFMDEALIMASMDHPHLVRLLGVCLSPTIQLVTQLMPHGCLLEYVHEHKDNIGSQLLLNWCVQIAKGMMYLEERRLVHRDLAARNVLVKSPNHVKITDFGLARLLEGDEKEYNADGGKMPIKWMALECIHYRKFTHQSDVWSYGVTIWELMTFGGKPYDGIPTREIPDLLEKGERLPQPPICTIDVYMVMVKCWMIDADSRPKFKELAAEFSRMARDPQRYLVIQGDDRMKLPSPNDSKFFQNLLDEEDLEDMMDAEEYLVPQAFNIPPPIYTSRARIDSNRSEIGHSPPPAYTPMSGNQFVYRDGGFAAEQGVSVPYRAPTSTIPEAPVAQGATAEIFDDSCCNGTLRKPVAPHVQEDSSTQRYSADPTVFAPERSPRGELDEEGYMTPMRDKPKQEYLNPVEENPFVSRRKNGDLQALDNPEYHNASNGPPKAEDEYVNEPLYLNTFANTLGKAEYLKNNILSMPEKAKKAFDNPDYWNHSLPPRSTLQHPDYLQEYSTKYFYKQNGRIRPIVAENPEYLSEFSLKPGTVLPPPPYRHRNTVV
Receptor tyrosine-protein kinase erbB-2 (Homo sapiens), sequence (P04626 whole entry): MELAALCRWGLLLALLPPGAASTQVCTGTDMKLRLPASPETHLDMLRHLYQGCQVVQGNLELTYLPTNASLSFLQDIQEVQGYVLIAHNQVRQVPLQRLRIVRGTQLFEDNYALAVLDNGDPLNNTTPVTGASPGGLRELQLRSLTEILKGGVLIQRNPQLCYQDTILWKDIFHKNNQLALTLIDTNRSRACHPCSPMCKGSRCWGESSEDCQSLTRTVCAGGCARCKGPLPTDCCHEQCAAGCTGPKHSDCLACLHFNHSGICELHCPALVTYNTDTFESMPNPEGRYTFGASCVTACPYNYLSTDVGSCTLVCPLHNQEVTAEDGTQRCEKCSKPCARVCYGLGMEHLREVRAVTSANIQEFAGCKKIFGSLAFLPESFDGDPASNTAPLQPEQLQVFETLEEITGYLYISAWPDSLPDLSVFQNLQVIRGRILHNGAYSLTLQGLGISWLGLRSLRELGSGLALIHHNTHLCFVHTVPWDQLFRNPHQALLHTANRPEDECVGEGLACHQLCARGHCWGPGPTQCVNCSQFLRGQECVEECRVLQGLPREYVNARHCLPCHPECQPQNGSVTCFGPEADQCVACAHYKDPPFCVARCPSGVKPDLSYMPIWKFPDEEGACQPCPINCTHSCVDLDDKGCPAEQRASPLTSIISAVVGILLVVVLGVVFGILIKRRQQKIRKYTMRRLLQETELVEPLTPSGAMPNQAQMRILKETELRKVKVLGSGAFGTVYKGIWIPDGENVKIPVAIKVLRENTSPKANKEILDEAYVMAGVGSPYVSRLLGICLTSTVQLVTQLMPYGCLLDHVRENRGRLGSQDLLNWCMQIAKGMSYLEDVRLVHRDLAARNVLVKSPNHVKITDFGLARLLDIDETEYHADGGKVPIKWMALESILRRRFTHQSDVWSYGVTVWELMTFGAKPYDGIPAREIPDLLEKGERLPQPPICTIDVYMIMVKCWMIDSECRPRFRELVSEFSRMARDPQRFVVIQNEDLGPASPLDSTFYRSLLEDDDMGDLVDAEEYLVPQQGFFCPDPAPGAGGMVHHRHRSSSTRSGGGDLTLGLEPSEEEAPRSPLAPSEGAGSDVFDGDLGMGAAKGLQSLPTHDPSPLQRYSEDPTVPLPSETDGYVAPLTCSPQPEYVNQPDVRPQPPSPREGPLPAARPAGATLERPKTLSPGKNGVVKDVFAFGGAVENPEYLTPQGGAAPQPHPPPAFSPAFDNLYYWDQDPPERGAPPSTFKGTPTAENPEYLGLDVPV

In the case of `CCOC1CC2(C)OC1(C(=O)OC)C(=O)N2C[C@H]1O[C@@H](n2cnc3c(NC(=O)OCc4ccccc4)ncnc32)[C@H](O)[C@@H]1O.CCOC1C[C@@]2(C)OC1(C(=O)OC)C(=O)N2C[C@H]1O[C@@H](n2cnc3c(NC(=O)OCc4ccccc4)ncnc32)[C@H](O)[C@@H]1O` (some centres not stated), the Selectivity in test [1] is 1.7. In test [2], the Selectivity entry was “inactive”.
As to `CCOC1CC2OC1(C(=O)OC)C(=O)N2C[C@H]1O[C@@H](n2cnc3c(N)ncnc32)[C@H](O)[C@@H]1O.CCOC1C[C@@]2(C)OC1(C(=O)OC)C(=O)N2C[C@H]1O[C@@H](n2cnc3c(N)ncnc32)[C@H](O)[C@@H]1O` (some centres not stated), the Selectivity came to 4.8 in test [1] and 1.4 in test [3].
Taken in the same sequence, the figures for `CN1C(=O)C2(C(N)=O)O[C@@]1(C)CC2OC(=O)NC[C@H]1O[C@@H](n2cnc3c(N)ncnc32)[C@H](O)[C@@H]1O.CN1CC2(C(N)=O)O[C@]1(C)C(=O)C2OC(=O)NC[C@H]1O[C@@H](n2cnc3c(N)ncnc32)[C@H](O)[C@@H]1O` (some centres not stated) were 54.7 and 1.2.
As to `CCOC1CC2(C)OC1(C(=O)NC[C@H]1O[C@@H](n3cnc4c(N)ncnc43)[C@H](O)[C@@H]1O)C(=O)N2C` (some centres not stated), the Selectivity in test [1] was found to be 9.1. The Selectivity entry in test [2] was “inactive”.
Turning to `CCOC1CC2(C[C@H]3O[C@@H](n4cnc5c(NC(=O)OCc6ccccc6)ncnc54)[C@H](O)[C@@H]3O)OC1(C(=O)OC)C(=O)N2C.CCOC1C[C@@]2(C[C@H]3O[C@@H](n4cnc5c(NC(=O)OCc6ccccc6)ncnc54)[C@H](O)[C@@H]3O)OC1(C(=O)OC)C(=O)N2C` (some centres not stated), the Selectivity in test [1] stood at 3.1. In addition, the Selectivity entry in test [2] was “inactive”.
For `CCOC1CC2(C[C@H]3O[C@@H](n4cnc5c(N)ncnc54)[C@H](O)[C@@H]3O)OC1(C(=O)OC)C(=O)N2C` (some centres not stated), the Selectivity in test [1] came to 34.4; in test [3] it was 1.6.

Values taken from ChEMBL document CHEMBL1136299, “Adenosine-anchored triphosphate subsite probing: distinguishing between HER-2 and HER-4 tyrosine protein kinases” (Bioorg Med Chem Lett, 2003).
